Data taken from US10149879B2 (priority 2014, dated 2018).

Legend:
Effect on body weight = type: in vivo, rats; conditions: H.G. animals, standard drug, in g (unit assumed)
Method: (§1) Before utilizing the test drug for human consumption the pre-clinical safety and efficacy profile of single plant candidate extract as well as in combined form was conducted following standard norms. […] The effect of test drug was assessed on glucose levels, insulin level, glycosylated hemoglobin, and pro-inflammatory cytokines, and the most important bio-marker neopterin including various neuro-psychological assessments.

Adiponectin = Adiponectin enhancing property in experimental diabetes; type: in vivo, rats; conditions: H.G. animals, standard drug
Method: (§2) Before utilizing the test drug for human consumption the pre-clinical safety and efficacy profile of single plant candidate extract as well as in combined form was conducted following standard norms. The biological property of test formulation was validated in streptozotocin (STZ) induced diabetes animal model which also helped in evaluation of vascular complications caused due to diabetes. The effect of test drug was assessed on glucose levels, insulin level, glycosylated hemoglobin, and pro-inflammatory cytokines, and the most important bio-marker neopterin including various neuro-psychological assessments. The mechanism based study clearly indicated the neopterin decreasing potential of test formulation which exerted neuro-protective activity, better glycemic control, anti-atherosclerotic, anti-inflammatory, anti-oxidant effects in STZ induced diabetes among the animals. Further, its therapeutic activity has also been validated in neurogenic dementia and other cognitive deficits associated with diabetes mellitus. Adiponectin Enhancing Property of Berberis aristata in Experimental Diabetes

SOD = assay: Attenuation of oxidative stress: SOD; type: in vivo, rats; set-up: SOD, Brain / SOD, Heart / SOD, Liver / SOD, Kidney: unit not given here; conditions: H.G. animals; standard drug
Method: as §2, with “Attenuation” for “Adiponectin Enhancing Property”, “Oxidative Stress Following Treatment with Test Formulation—Restriction of SOD” for “Berberis aristata in Experimental Diabetes”

TBARS = assay: Attenuation of oxidative stress: TBARS formation; type: in vivo, rats; set-up: TBARS formation, Brain / TBARS formation, Heart / TBARS formation, Liver / TBARS formation, Kidney: unit not given here; conditions: H.G. animals; standard drug
Method: as §2, with “Attenuation” for “Adiponectin Enhancing Property”, “Oxidative Stress Following Treatment with Test Formation—Reduction” for “Berberis aristata”, “TBARS Formation” for “Experimental Diabetes”

Hemoglobin = assay: Glycation of hemoglobin; type: in vivo, rats; conditions: H.G. animals; standard drug
Method: as §1, with “assessments. […] Aldose Reductase Activity and Glycation of Hemoglobin Following Test Formulation Treatment” for “assessments.”

Creatinine, Urea = assay: Effect on renal function; type: in vivo, rats; conditions: H.G. animals; standard drug
Method: as §2, with “Effect” for “Adiponectin Enhancing Property”, “Test Formulation on Renal Function” for “Berberis aristata in Experimental Diabetes”

Aldose reductase = target: T1, Aldose reductase (Rattus norvegicus, UniProt P07943); assay: Aldose reductase activity; type: in vivo, rats; conditions: H.G. animals; standard drug
T1 construct: from tissue; STZ-induced diabetic animals
Method: as §1, with “assessments. […] Aldose Reductase Activity and Glycation of Hemoglobin Following Test Formulation Treatment” for “assessments.”

L6 cells = assay: Anti-oxidant activity in L6 cells challenged with H2O2; type: cell-based; set-up: Anti-oxidant activity, cells challenged with H2O2: unit not given here; conditions: for Anti-oxidant activity, cells challenged with H2O2: L6; for protection against H2O2 induced cellular oxidative damage: L6 cells
Text: Anti-Oxidant Activity in L6 Cells Challenged with H2O2 Berberin and Palmatine
Anti-Oxidant Activity in L6 Cells Challenged with H2O2—Berberin and Quercetin

L6-myotubes = assay: Anti-diabetic activity (glucose consumption) in L6-myotubes; type: cell-based; set-up: Anti-diabetic activity (glucose consumption): unit not given here; conditions: for Anti-diabetic activity (glucose consumption): L6-myotubes, control 1.00

Work on `CCc1ccc(CCOc2ccc(CC3SC(=O)NC3=O)cc2)nc1` (centres unmarked) [Pioglitazone] yielded a Body weight (Effect on body weight; 0th Day) of 200.00 ± 4.65, a Body weight (Effect on body weight; 7th Day) of 178.80 ± 4.00 and a Body weight (Effect on body weight; 14th Day) of 169.13 ± 2.84. For the same compound, the Adiponectin (Adiponectin; 7th day) was 7.13 ± 2.10 pg/mL, the Adiponectin (Adiponectin; 14th Day) was 8.02 ± 2.01 pg/mL and the “SOD, Brain” value (SOD) was 19.33 ± 3.66. For the same compound, the “SOD, Heart” value (SOD) was 15.83 ± 5.83, the “SOD, Kidney” value (SOD) was 16.67 ± 1.86 and the “SOD, Liver” value (SOD) was 13.50 ± 1.76. For the same compound, the “SOD, Pancrease” value (SOD) was 6.91 ± 0.22, the “TBARS formation, Brain” value (TBARS) was 52.66 ± 3.55 and the “TBARS formation, Heart” value (TBARS) was 61.83 ± 4.52. The “TBARS formation, Kidney” value (TBARS) was 56.33 ± 7.93, the “TBARS formation, Liver” value (TBARS) was 82.50 ± 2.84 and the “TBARS formation, Pancrease” value (TBARS) was 87.67 ± 7.41. For the same compound, the “Glycated Hb” value (Hemoglobin) was 0.53 ± 0.07 mg/g of Hb, the Hb (Hemoglobin) was 10.09 ± 1.85 g/dL and the Creatinine (Creatinine, Urea) was 3.20 ± 0.09 mg/dL. The Urea (Creatinine, Urea) was 48.00 ± 2.00 mg/dL.

`CN(C)C(=N)N=C(N)N` [Metformin] gave a Body weight (Effect on body weight; 0th Day) of 207.25 ± 6.44, an Adiponectin (Adiponectin; 7th day) of 6.90 ± 1.87 pg/mL and an Adiponectin (Adiponectin; 14th Day) of 6.11 ± 1.39 pg/mL. For the same compound, the “SOD, Brain” value (SOD) was 19.83 ± 3.56, the “SOD, Heart” value (SOD) was 14.33 ± 5.13 and the “SOD, Kidney” value (SOD) was 16.00 ± 2.37. The “SOD, Liver” value (SOD) was 15.33 ± 0.86, the “SOD, Pancrease” value (SOD) was 7.01 ± 0.46 and the “TBARS formation, Brain” value (TBARS) was 48.08 ± 3.42. The “TBARS formation, Heart” value (TBARS) was 62.33 ± 4.81, the “TBARS formation, Kidney” value (TBARS) was 56.74 ± 5.07 and the “TBARS formation, Liver” value (TBARS) was 80.83 ± 9.17. The “TBARS formation, Pancrease” value (TBARS) was 83.17 ± 7.24, the “Glycated Hb” value (Hemoglobin) was 0.44 ± 0.04 mg/g of Hb and the Hb (Hemoglobin) was 10.06 ± 0.06 g/dL. For the same compound, the Aldose reductase (Aldose reductase) was 2.60 ± 0.75 μM of NADPH oxidized/g of protein, the Creatinine (Creatinine, Urea) was 3.18 ± 0.05 mg/dL and the Urea (Creatinine, Urea) was 45.45 ± 5.25 mg/dL.

For `COc1ccc2cc3[n+](cc2c1OC)CCc1cc2c(cc1-3)OCO2` [Berberin], the “Anti-oxidant activity, cells challenged with H2O2” value (shortened to “Anti-oxidant activity”) (L6 cells; Co-incubated, 10 pM, control 60.10) was 62.10 ± 4.40, the “Anti-oxidant activity” value (L6 cells; Co-incubated, 10 pg/ml, control 61.10) was 60.40 ± 2.20 and the “Anti-oxidant activity” value (L6 cells; Co-incubated, 100 pM, control 60.10) was 63.97 ± 8.52. The “Anti-oxidant activity” value (L6 cells; Co-incubated, 100 pg/ml, control 61.10) was 66.12 ± 2.70, the “Anti-oxidant activity” value (L6 cells; Co-incubated, 1 nM, control 60.10) was 66.10 ± 5.67 and the “Anti-oxidant activity” value (L6 cells; Co-incubated, 1 ng/ml, control 61.10) was 70.07 ± 2.95. For the same compound, the “Anti-oxidant activity” value (L6 cells; Co-incubated, 10 nM, control 60.10) was 69.40 ± 5.00, the “Anti-oxidant activity” value (L6 cells; Co-incubated, 10 ng/ml, control 61.10) was 75.14 ± 0.90 and the “Anti-oxidant activity” value (L6 cells; Co-incubated, 100 nM, control 60.10) was 72.40 ± 3.03. For the same compound, the “Anti-oxidant activity” value (L6 cells; Co-incubated, 100 ng/ml, control 61.10) was 77.51 ± 1.70, the “Anti-oxidant activity” value (L6 cells; Pre-incubated, 10 pM, control 60.10) was 59.80 ± 6.60 and the “Anti-oxidant activity” value (L6 cells; Pre-incubated, 10 pg/ml, control 61.10) was 63.50 ± 1.00. For the same compound, the “Anti-oxidant activity” value (L6 cells; Pre-incubated, 100 pM, control 60.10) was 60.40 ± 8.50, the “Anti-oxidant activity” value (L6 cells; Pre-incubated, 100 pg/ml, control 61.10) was 69.40 ± 2.00 and the “Anti-oxidant activity” value (L6 cells; Pre-incubated, 1 nM, control 60.10) was 63.70 ± 7.25. For the same compound, the “Anti-oxidant activity” value (L6 cells; Pre-incubated, 1 ng/ml, control 61.10) was 71.12 ± 1.12, the “Anti-oxidant activity” value (L6 cells; Pre-incubated, 10 nM, control 60.10) was 68.60 ± 4.50 and the “Anti-oxidant activity” value (L6 cells; Pre-incubated, 10 ng/ml, control 61.10) was 78.98 ± 1.90. The “Anti-oxidant activity” value (L6 cells; Pre-incubated, 100 nM, control 60.10) was 72.81 ± 5.70, the “Anti-oxidant activity” value (L6 cells; Pre-incubated, 100 ng/ml, control 61.10) was 83.70 ± 1.70 and the “protection against H2O2 induced cellular oxidative damage” value (L6 cells; comparison with positive standard) was “potent protection”. For the same compound, the “protection against H2O2 induced cellular oxidative damage” value (L6 cells; pM-nM doses) was “mild protection”, the “Anti-diabetic activity (glucose consumption)” value (from here on “Anti-diabetic activity”) (L6-myotubes; 1 nM) was 1.38 ± 0.08 and the “Anti-diabetic activity” value (L6-myotubes; 5 nM) was 1.78 ± 0.08. The “Anti-diabetic activity” value (L6-myotubes; 25 nM) was 1.98 ± 0.08, the “Anti-diabetic activity” value (L6-myotubes; 125 nM) was 2.30 ± 0.08 and the “Anti-diabetic activity” value (L6-myotubes; 625 nM) was 2.50 ± 0.10. For the same compound, the “glucose consumption” value (L6-myotubes; differentiated L6-myotubes, dose dependent) was “accelerated glucose consumption”.
